Assay results as given in patent US20250171511A1, “ANTIVIRAL PEPTIDES AND METHODS OF USE THEREOF” (Versitech Limited, priority 2021, published 2025).
Where a SMILES comes first, the peptide text is derived from it.

Assays:
[1] = Solubility of peptide in water; type: physicochemical
Protocol: H23, H26, H30, 2H30, and 4H30 shown in Table 1 were synthesized by ChinaPeptide (Shanghai, China). All peptides were dissolved in water. The solubility of peptide in water is greater than 5 mg ml^−1. The purity of all peptides was >80%. The purity and mass of each peptide were verified by HPLC and mass spectrometry.

[2] = tested on: spike-ACE2 mediated fusion; type: cell-based; details: endocytosis pathway
[3] = tested on: VeroE6 cells; assay: Endosomal acidification assay; type: cell-based
Protocol: Endosomal acidification was detected with a pH-sensitive dye (pHrodo green dextran, Invitrogen, Cat^# P35365) according to the manufacturer's instructions as previously described but with slight modification (H. Zhao, et al., Nat Commun, 9 (2018) 2358). First, VeroE6 cells were treated with DMEM, 4H30 (25.0 μg ml^−1), or bafilomycin A1 (50.0 nM) at 4° C. for 15 min. Second, VeroE6 cells were added with 100 μg ml^−1 of pH-sensitive dye and DAPI and then incubated at 4° C. for 15 min. Before taking images, cells were further incubated at 37° C. for 15 min and then cells were washed twice with PBS. Finally, PBS was added to cells and images were taken immediately with confocal microscope (Carl Zeiss LSM 800, Germany).

[4] = target: SARS-CoV-2 spike (SARS-CoV-2), P0DTC2; assay: cell-based or functional assay

Molecule	solubility [1] [µg/mL]	also measured
CC[C@H](C)[C@H](NC(=O)[C@H](CCC(N)=O)NC(=O)[C@H](CCCCN)NC(=O)[C@H](Cc1ccc(O)cc1)NC(=O)[C@H](CCCNC(=N)N)NC(=O)[C@H](CCCNC(=N)N)NC(=O)[C@@H]1CCCN1C(=O)[C@H](CS)NC(=O)[C@H](Cc1ccccc1)NC(=O)[C@@H](NC(=O)[C@@H]1CCCN1C(=O)[C@H](Cc1c[nH]cn1)NC(=O)[C@@H](N)CS)C(C)C)C(=O)NCC(=O)N[C@H](C(=O)N[C@@H](CS)C(=O)NCC(=O)N[C@@H](CC(C)C)C(=O)N1CCC[C@H]1C(=O)NCC(=O)N[C@H](C(=O)N[C@@H](CCCCN)C(=O)N[C@@H](CS)C(=O)O)[C@@H](C)O)[C@@H](C)O [Peptide H23] (H-CHPVFCPRRYKQIGTCGLPGTKC-OH; N-terminus and C-terminus assumed)	> 5000	–
CC[C@H](C)[C@H](NC(=O)[C@H](CCC(N)=O)NC(=O)[C@H](CCCCN)NC(=O)[C@H](Cc1ccc(O)cc1)NC(=O)[C@H](CCCNC(=N)N)NC(=O)[C@H](CCCNC(=N)N)NC(=O)[C@@H]1CCCN1C(=O)[C@H](CS)NC(=O)[C@H](Cc1ccccc1)NC(=O)[C@@H](NC(=O)[C@@H]1CCCN1C(=O)[C@H](Cc1c[nH]cn1)NC(=O)[C@@H](N)CS)C(C)C)C(=O)NCC(=O)N[C@H](C(=O)N[C@@H](CS)C(=O)NCC(=O)N[C@@H](CC(C)C)C(=O)N1CCC[C@H]1C(=O)NCC(=O)N[C@H](C(=O)N[C@@H](CCCCN)C(=O)N[C@@H](CS)C(=O)N[C@@H](CS)C(=O)N[C@@H](CCCCN)C(=O)N[C@@H](CCCCN)C(=O)O)[C@@H](C)O)[C@@H](C)O [Peptide H26] (H-CHPVFCPRRYKQIGTCGLPGTKCCKK-OH; N-terminus and C-terminus assumed)	> 5000	–
CC[C@H](C)[C@H](NC(=O)[C@H](C)NC(=O)CN)C(=O)N[C@@H](CS)C(=O)N[C@@H](Cc1c[nH]cn1)C(=O)N1CCC[C@H]1C(=O)N[C@H](C(=O)N[C@@H](Cc1ccccc1)C(=O)N[C@@H](CS)C(=O)N1CCC[C@H]1C(=O)N[C@@H](CCCNC(=N)N)C(=O)N[C@@H](CCCNC(=N)N)C(=O)N[C@@H](Cc1ccc(O)cc1)C(=O)N[C@@H](CCCCN)C(=O)N[C@@H](CCC(N)=O)C(=O)N[C@H](C(=O)NCC(=O)N[C@H](C(=O)N[C@@H](CS)C(=O)NCC(=O)N[C@@H](CC(C)C)C(=O)N1CCC[C@H]1C(=O)NCC(=O)N[C@H](C(=O)N[C@@H](CCCCN)C(=O)N[C@@H](CS)C(=O)N[C@@H](CS)C(=O)N[C@@H](CCCCN)C(=O)N[C@@H](CCCCN)C(=O)N1CCC[C@H]1C(=O)O)[C@@H](C)O)[C@@H](C)O)[C@@H](C)CC)C(C)C [Peptide H30] (H-GAICHPVFCPRRYKQIGTCGLPGTKCCKKP-OH; N-terminus and C-terminus assumed)	> 5000	–
CO/C1=C\C(C)=C\[C@@H](C)[C@@H](O)[C@@H](C)C/C(C)=C/C=C/[C@H](OC)[C@@H]([C@@H](C)[C@@H](O)[C@H](C)[C@@]2(O)C[C@@H](O)[C@H](C)[C@@H](C(C)C)O2)OC1=O [bafilomycin Al, bafilomycin A1, reference compound]	–	spike-ACE2 mediated cell fusion [2]: inhibiting endosomal acidification and cell fusion; endosomal acidification [3]: inhibiting endosomal acidification
GAICHPVFCPRRYKQIGTCGLPGTKCCKKP (modifications not checked) [four branched H30 (4H30)]	–	IC50 of inhibition of SARS-CoV-2 infection, plaque reduction assay in PBS [4]: 0.59 µg/mL
